These results are taken from patent US9714424B1, “RNAi inhibition of USP10 to treat ocular disorders” (ICAHN SCHOOL OF MEDICINE AT MOUNT SINAI, priority 2014, dated 2017).

The test system of experiment [1] is USP10 expression. Nature of the experiment: USP10 protein expression in HCFs treated with TGFβ or TGFβ inhibitor. It is filed as cell-based, human. The text has this:
Porcine corneas with scleral rims were mounted on an agarose/collagen base without wounding (control corneas) or after wounding through the anterior stroma with a trephine (wounded corneas). A-H immunostaining of paraffin embedded corneal slices comparing control to 2 weeks post-wounding. Compared to control fibrotic markers increased in the anterior stroma after wounding: (A, B) α-SMA 2.9-fold+/−0.8 ***p<0.005, (C) No primary antibody control, (D, E) USP10 2.5-fold+/−0.8 **p<0.01, and F) Pre-incubation with a USP10 blocking peptide reduced immunostaining. Bar=50 um. (G) Western blot of human and porcine primary epithelial cells (Epi) and stromal cells (Fibro).
Since TGFβ plays an important role in all wounding and fibrotic disease, we tested if TGFβ induced the expression of USP10. In the remaining cell culture studies unless otherwise noted, fibroblasts that have been passaged in serum-containing media are detached and plated on type I collagen in supplemented-serum free media (SSFM). In FIG. 4H, primary human corneal fibroblasts (HCFs) were treated with 1 ng/ml TGFβ for 2 days. TGFβ increased USP10 expression by 57% as compared to no treatment.

The subject of experiment [2] is αv integrins αvβ1, β3, β5. Nature of the experiment: TGFβ activity assay, htert-SMAD reporter cells co-cultured with htert-USP10 cells, αv integrin blocking. It is filed as cell-based, human. To be noted: 100 nM, compared to control small molecule CWHM96. The protocol:
TGFβ activity was measured using cell lines constitutively expressing pGreenFire Lenti-Reporter (System Biosciences) a reporter for SMAD activation. This reporter was used to generate TGFβ reporter cell lines with htert fibroblasts (htert-SMAD) and 293t cells (293t-SMAD). To assess TGFβ activity with USP10 overexpression, 50K Htert-SMAD cells were co-cultured with 50K cells constitutively overexpressing USP10 (htert-USP10) or control cells (htert cells expressing empty vector, htert-vector cells). After 24 hours, cells were removed with trypsin, pelleted, re-suspended in luciferase reagent, placed in wells in triplicate, and assayed for luciferase expression. To assess TGFβ activity when USP10 was silenced, USP10 and control siRNA were transiently transfected in 293t-SMAD cells and assayed as above. To assess TGFβ activity when av integrins were blocked, USP10 cells were treated with intergrin αv blocking small molecule or matched control small molecule and assayed as above.
It was previously reported that integrin αvβ5 directly activates TGFβ in myofibroblasts. […] First we confirmed that the htert-HCF line had low (undetectable) endogenous TGFβ activity so that the induction of TGFβ activity by USP10 could be quantified (data not shown). […] The next day, cells were lysed and luciferase substrate (Brightglo) was added prior to quantification of luciferase activity in each sample. […]

`NC(=O)c1ccc(-c2nc(-c3ccc4c(c3)OCO4)c(-c3ccccn3)[nH]2)cc1` [SB431542]: the “USP10 expression, decrease” value in experiment [1] (blocking TGFβ-induced SMAD2/3 signaling) was 44%. As to `CC(C)(C)c1cc(Br)cc([C@H](CC(=O)O)NC(=O)CNC(=O)c2cc(O)cc(NC3=NCC(O)CN3)c2)c1` (stereo partly drawn) [CWHM12], the “USP10-mediated TGFβ activity, reduction” value in experiment [2] worked out at 63%+/−6%. Regarding “TGFβ: fibrotic growth factor, added at 1 ng/ml to HCFs”, the “USP10 expression, increase” value in experiment [1] (1 ng/ml for 2 days, compared to no treatment) worked out at 57%.
